Measured values published in the NIST ThermoML archive (doi:10.1021/acs.jced.6b01058).
Numbers after ± are expanded uncertainties.

How the values were obtained:
[1] = 85 kPa, Liquid, Vibrating tube method
[2] = wn = mass fraction of the nth substance listed; conditions: 85 kPa, Liquid, Vibrating tube method
[3] = mn = molality of the nth substance listed, in mol/kg; conditions: 85 kPa, Liquid, Vibrating tube method

O [water]
[1]
Conditions | mass density [kg/m3]
298.15 K | 997.29 ± 1
303.15 K | 995.9 ± 1
308.15 K | 994.27 ± 1
313.15 K | 992.46 ± 1

CO [methanol] + O
mass density [kg/m3], [2]
Conditions | 298.15 K | 303.15 K | 308.15 K | 313.15 K
w1 = 0.04 | 989.97 ± 3.7 | 988.62 ± 3.7 | 987.03 ± 3.7 | 985.22 ± 3.7
w1 = 0.08 | 982.92 ± 3.6 | 981.47 ± 3.6 | 979.91 ± 3.6 | 978.12 ± 3.7
w1 = 0.16 | 969.42 ± 3.5 | 967.61 ± 3.6 | 965.92 ± 3.7 | 963.68 ± 3.8

CCO [ethanol] + O
mass density [kg/m3], [2]
Conditions | 298.15 K | 303.15 K | 308.15 K | 313.15 K
w1 = 0.04 | 990.13 ± 3.3 | 988.79 ± 3.3 | 987.24 ± 3.3 | 985.42 ± 3.4
w1 = 0.08 | 983.9 ± 3.1 | 982.43 ± 3.2 | 980.77 ± 3.2 | 978.85 ± 3.3
w1 = 0.16 | 972.57 ± 3 | 970.69 ± 3.1 | 968.6 ± 3.2 | 966.4 ± 3.3

CCCCCCCCCCCC(=O)N(C)CC(=O)[O-].[Na+] [sodium [dodecanoyl(methyl)amino]acetate] + O
mass density [kg/m3], [3]
Conditions | m1 = 0.02 | m1 = 0.03 | m1 = 0.04 | m1 = 0.05 | m1 = 0.06 | m1 = 0.07 | m1 = 0.08 | m1 = 0.09
298.15 K | 998.13 ± 1 | 998.42 ± 1 | 998.73 ± 1 | 999.03 ± 1 | 999.43 ± 1 | 999.67 ± 1 | 1000.07 ± 1 | 1000.37 ± 1
303.15 K | 996.67 ± 1 | 996.99 ± 1 | 997.32 ± 1 | 997.61 ± 1 | 997.96 ± 1 | 998.27 ± 1 | 998.59 ± 1 | 998.88 ± 1
308.15 K | 995.04 ± 1 | 995.33 ± 1 | 995.67 ± 1 | 995.93 ± 1 | 996.27 ± 1 | 996.56 ± 1 | 996.88 ± 1 | 997.14 ± 1
313.15 K | 993.18 ± 1 | 993.48 ± 1 | 993.8 ± 1 | 994.06 ± 1 | 994.41 ± 1 | 994.7 ± 1 | 994.95 ± 1 | 995.27 ± 1

CCCO [propan-1-ol] + O
mass density [kg/m3], [2]
Conditions | 298.15 K | 303.15 K | 308.15 K | 313.15 K
w1 = 0.04 | 990.59 ± 2.8 | 989.14 ± 2.8 | 987.49 ± 2.8 | 985.62 ± 2.9
w1 = 0.08 | 985.46 ± 3 | 983.86 ± 3.1 | 982.13 ± 3.3 | 980.12 ± 3.3
w1 = 0.16 | 973.64 ± 3.1 | 971.45 ± 3.3 | 969.08 ± 3.4 | 966.84 ± 3.5
